The text below walks through data of patent US20240246967A1, “AXL COMPOUNDS” (ARCUS BIOSCIENCES, INC., priority 2021, published 2024).

Some results are limits rather than exact numbers.

Assay [1] concerns the target T1, Axl (Homo sapiens, UniProt P30530).
T1 sequence (P30530 26-894): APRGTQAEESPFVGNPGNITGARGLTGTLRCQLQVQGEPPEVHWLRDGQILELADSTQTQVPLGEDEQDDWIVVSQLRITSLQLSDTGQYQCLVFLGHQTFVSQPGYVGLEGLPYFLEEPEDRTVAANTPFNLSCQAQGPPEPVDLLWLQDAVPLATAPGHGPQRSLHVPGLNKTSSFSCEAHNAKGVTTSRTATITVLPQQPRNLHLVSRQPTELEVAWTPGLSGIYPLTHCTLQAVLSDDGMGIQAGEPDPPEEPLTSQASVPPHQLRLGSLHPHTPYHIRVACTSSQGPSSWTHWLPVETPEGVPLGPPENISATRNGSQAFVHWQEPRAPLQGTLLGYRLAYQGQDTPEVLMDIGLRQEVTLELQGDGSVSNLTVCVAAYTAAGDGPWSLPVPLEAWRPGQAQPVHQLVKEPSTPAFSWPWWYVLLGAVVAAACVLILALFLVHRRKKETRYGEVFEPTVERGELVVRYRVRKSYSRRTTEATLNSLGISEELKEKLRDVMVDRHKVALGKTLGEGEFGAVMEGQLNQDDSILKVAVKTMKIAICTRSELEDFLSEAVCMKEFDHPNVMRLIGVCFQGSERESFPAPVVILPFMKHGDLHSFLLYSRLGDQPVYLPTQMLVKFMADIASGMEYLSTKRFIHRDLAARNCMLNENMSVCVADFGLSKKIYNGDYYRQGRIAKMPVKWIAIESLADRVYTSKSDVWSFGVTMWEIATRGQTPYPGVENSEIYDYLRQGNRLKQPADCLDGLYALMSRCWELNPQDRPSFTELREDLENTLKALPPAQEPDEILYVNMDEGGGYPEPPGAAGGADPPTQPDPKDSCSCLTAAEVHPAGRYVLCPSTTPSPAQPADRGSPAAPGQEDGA
Nature of the assay: HTRF KinEASE-TK biochemical potency assay, AXL. The conditions noted are these: 5 nM AXL, 700 μM ATP, 800 nM TK Substrate-biotin. Further details: purchased Invitrogen. In short, it runs like this: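 HTRF 665/620 nm read-out after streptavidin-XL665/anti-phosphotyrosine cryptate detection (1 h RT). Final reaction: 5 nM AXL or 1 nM TYRO3/MER, 800 nM TK substrate-biotin, 700 μM ATP, pH 7.4 HEPES buffer, 1% DMSO, 2 h RT, after 1 h enzyme–compound preincubation.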

For assay [2], the target named is T1, Axl. Nature of the assay: Axl NanoBRET intracellular kinase assay (intracellular binding, Cell Binding). Details: host or cells: HEK-293. The conditions noted are these: HEK-293 cells transfected with Axl-NanoLuc fusion vector; 0.35 μM K-5 NanoBRET tracer. An outline of the steps: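 HEK-293 cells transiently transfected with Axl-NanoLuc fusion the day before were pre-incubated with compound for 1 h at 37 °C, 5% CO2 (0.5% DMSO), then with 0.35 μM K-5 NanoBRET tracer for 2 h. Tracer displacement was read as the 610/450 nm BRET ratio; IC50 from 4-parameter fit.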

In the case of `C[C@@H]1CCCN1C1(C)CCc2ccc(-c3cnc4[nH]nc(-c5ccc(C(=O)N[C@@H]6CCOC6)cc5)c4c3)cc2CC1` (stereo partly drawn) [Example 99, 4-(5-{7-Methyl-7-[(2R)-2-methylpyrrolidin-1-yl]-6,7,8,9-tetrahydro-5H-benzo[7]annulen-2-yl}-1H-pyrazolo[3,4-b]pyridin-3-yl)-N-[(3R)-oxolan-3-yl]benzamide], the IC50 in assay [1] and in assay [2] was under 100 nM in each case.
On to `COCCS(=O)(=O)c1ccc(-c2n[nH]c3ncc(-c4ccc5c(c4)CCC(C)(N4CCC[C@H]4C)CC5)cc23)cc1` (stereo partly drawn) [Example 111, (2R)-1-(2-{3-[4-(2-Methoxyethanesulfonyl)phenyl]-1H-pyrazolo[3,4-b]pyridin-5-yl}-7-methyl-6,7,8,9-tetrahydro-5H-benzo[7]annulen-7-yl)-2-methylpyrrolidine], for which the 50% inhibitory concentration (IC50) in assay [1] and in assay [2] was under 100 nM throughout.
With `C[C@@H]1CCCN1C1(C)CCc2ccc(-c3cnc4[nH]nc(-c5cnc(C(C)(C)O)c(Cl)c5)c4c3)cc2CC1` (stereo partly drawn) [Example 98, 2-[3-Chloro-5-(5-{7-methyl-7-[(2R)-2-methylpyrrolidin-1-yl]-6,7,8,9-tetrahydro-5H-benzo[7]annulen-2-yl}-1H-pyrazolo[3,4-b]pyridin-3-yl)pyridin-2-yl]propan-2-ol], the figures for the concentration for half-maximal inhibition (IC50) in assay [1] and in assay [2] were under 100 nM and 100 to 1000 nM, respectively.
The corresponding values for `CC(C)(O)c1ccc(-c2n[nH]c3ncc(-c4ccc5c(c4)CC4CCC(C5)C4N4CCCC4)cc23)cc1Cl` (stereo not shown) [Example 61, 2-(2-Chloro-4-{5-[13-(pyrrolidin-1-yl)tricyclo[8.2.1.0^3,8]trideca-3,5,7-trien-5-yl]-1H-pyrazolo[3,4-b]pyridin-3-yl}phenyl)propan-2-ol] are over 1000 nM and over 1000 nM.
The corresponding values for `C[C@@H]1CCCN1C1CCc2ccc(-c3cnc4[nH]nc(-c5ccc(C(C)(C)O)c(Cl)c5)c4c3)cc2CC1` (stereo partly drawn) [Example 35, 2-(2-Chloro-4-(5-(7-((R)-2-methylpyrrolidin-1-yl)-6,7,8,9-tetrahydro-5H-benzo[7]annulen-2-yl)-1H-pyrazolo[3,4-b]pyridin-3-yl)phenyl)propan-2-ol] are under 100 nM and under 100 nM.
For the compound `CC(C)(O)c1ccc(-c2n[nH]c3ncc(-c4ccc5c(c4)CCN(C4CCCC4)CC5)cc23)cc1Cl` [Example 12, 2-{2-Chloro-4-[5-(3-cyclopentyl-2,3,4,5-tetrahydro-1H-3-benzazepin-7-yl)-1H-pyrazolo[3,4-b]pyridin-3-yl]phenyl}propan-2-ol], the values for the half-inhibitory concentration (IC50) in assay [1] and in assay [2] were under 100 nM and 100 to 1000 nM, respectively.
The like results for `O=S(=O)(c1ccc(-c2n[nH]c3ncc(-c4ccc5c(c4)CCN(CC4CCOC4)CC5)cc23)cc1)C1CC1` (stereo not shown) [Example 27, 7-{3-[4-(Cyclopropanesulfonyl)phenyl]-1H-pyrazolo[3,4-b]pyridin-5-yl}-3-[(oxolan-3-yl)methyl]-2,3,4,5-tetrahydro-1H-3-benzazepine] were, in that order, under 100 nM and 100 to 1000 nM.
The like results for `Cc1cc(-c2n[nH]c3ncc(-c4ccc5c(c4)CC[C@@H](N4CCCC4)CC5)cc23)cc(Cl)c1C(N)=O` [Example 50, 2-Chloro-6-methyl-4-{5-[(7S)-7-(pyrrolidin-1-yl)-6,7,8,9-tetrahydro-5H-benzo[7]annulen-2-yl]-1H-pyrazolo[3,4-b]pyridin-3-yl}benzamide] were, in that order, under 100 nM and under 100 nM.
The corresponding values for `Cc1cc(-c2n[nH]c3ncc(-c4ccc5c(c4)CCN(C4CC4)CC5)cc23)ccc1C(=O)N1CCNCC1` [Example 119, 3-Cyclopropyl-7-{3-[3-methyl-4-(piperazine-1-carbonyl)phenyl]-1H-pyrazolo[3,4-b]pyridin-5-yl}-2,3,4,5-tetrahydro-1H-3-benzazepine] are under 100 nM and 100 to 1000 nM.
Turning to `CC(C)(O)c1ccc(-c2n[nH]c3ncc(-c4ccc5c(c4)CCN(C4CCCC4)CC5)cc23)cn1` [Example 10, 2-{5-[5-(3-Cyclopentyl-2,3,4,5-tetrahydro-1H-3-benzazepin-7-yl)-1H-pyrazolo[3,4-b]pyridin-3-yl]pyridin-2-yl}propan-2-ol], the figures for the half-maximal inhibitory concentration (IC50) in assay [1] and in assay [2] were under 100 nM and 100 to 1000 nM, respectively.
Take `C[C@H]1CCCN1C1CCc2ccc(-c3cnc4[nH]nc(-c5ccc(S(=O)(=O)C6CC6)cc5)c4c3)cc2CC1` (stereo partly drawn) [Example 24, 3-(4-(Cyclopropylsulfonyl)phenyl)-5-(7-((S)-2-methylpyrrolidin-1-yl)-6,7,8,9-tetrahydro-5H-benzo[7]annulen-2-yl)-1H-pyrazolo[3,4-b]pyridine]: the IC50 in assay [1] and in assay [2] was under 100 nM in each case.
Regarding `O=S(=O)(c1ccc(-c2n[nH]c3ncc(-c4ccc5c(c4)CCN(C4CCOCC4)CC5)cc23)cc1)C1CC1` [Example 26, 7-{3-[4-(Cyclopropanesulfonyl)phenyl]-1H-pyrazolo[3,4-b]pyridin-5-yl}-3-(oxan-4-yl)-2,3,4,5-tetrahydro-1H-3-benzazepine], the IC50 is under 100 nM in assay [1] and 100 to 1000 nM in assay [2].
The like results for `O=C([C@H]1CCCN1)N1CCc2ccc(-c3cnc4[nH]nc(-c5ccc(S(=O)(=O)C6CC6)cc5)c4c3)cc2CC1` [Example 113, 7-{3-[4-(Cyclopropanesulfonyl)phenyl]-1H-pyrazolo[3,4-b]pyridin-5-yl}-3-[(2R)-pyrrolidine-2-carbonyl]-2,3,4,5-tetrahydro-1H-3-benzazepine] were, in that order, under 100 nM and 100 to 1000 nM.
The corresponding values for `COCCOc1ccc(-c2n[nH]c3ncc(-c4ccc5c(c4)CCC(C)(N4CCC[C@H]4C)CC5)cc23)cc1` (stereo partly drawn) [Example 110, 3-(4-(2-Methoxyethoxy)phenyl)-5-(7-methyl-7-((R)-2-methylpyrrolidin-1-yl)-6,7,8,9-tetrahydro-5H-benzo[7]annulen-2-yl)-1H-pyrazolo[3,4-b]pyridine] are under 100 nM and under 100 nM.
The like results for `CC(C)(O)c1ccc(-c2n[nH]c3ncc(-c4ccc5c(c4)CCC(N4CCC[C@@H]4CO)CC5)cc23)cc1Cl` (stereo partly drawn) [Example 21, 2-[2-Chloro-4-(5-{7-[(2R)-2-(hydroxymethyl)pyrrolidin-1-yl]-6,7,8,9-tetrahydro-5H-benzo[7]annulen-2-yl}-1H-pyrazolo[3,4-b]pyridin-3-yl)phenyl]propan-2-ol] were, in that order, under 100 nM and under 100 nM.
On to `CN(C)C(=O)c1ccc(-c2n[nH]c3ncc(-c4ccc5c(c4)CC[C@@H](N4C6COCC4C6)CC5)cc23)cc1` [Example 125, N,N-Dimethyl-4-{5-[(7S)-7-{3-oxa-6-azabicyclo[3.1.1]heptan-6-yl}-6,7,8,9-tetrahydro-5H-benzo[7]annulen-2-yl]-2H-pyrazolo[3,4-b]pyridin-3-yl}benzamide], for which the IC50 in assay [1] and in assay [2] was under 100 nM each time.
With `CS(=O)(=O)N1CCC(c2n[nH]c3ncc(-c4ccc5c(c4)CCC(N4CCCC4)CC5)cc23)CC1` (stereo not shown) [Example 23, 1-Methanesulfonyl-4-{5-[7-(pyrrolidin-1-yl)-6,7,8,9-tetrahydro-5H-benzo[7]annulen-2-yl]-1H-pyrazolo[3,4-b]pyridin-3-yl}piperidine], the IC50 in assay [1] is under 100 nM; in assay [2], 100 to 1000 nM.
The like results for `C[C@@H]1CCCN1[C@@H]1CCc2cc(-c3cnc4[nH]nc(-c5ccc(S(=O)(=O)C6CC6)cc5)c4c3)cnc2CC1` [Example 101, (2R)-1-(3-{3-[4-(Cyclopropanesulfonyl)phenyl]-1H-pyrazolo[3,4-b]pyridin-5-yl}-5H,6H,7H,8H,9H-cyclohepta[b]pyridin-7-yl)-2-methylpyrrolidine] were, in that order, under 100 nM and over 1000 nM.
The like results for `O=S(=O)(c1ccc(-c2n[nH]c3ncc(-c4ccc5c(c4)CC[C@@H](N4CCCC4)CC5)cc23)cc1)C1CC1` [Example 40, (S)-3-(4-(Cyclopropylsulfonyl)phenyl)-5-(7-(pyrrolidin-1-yl)-6,7,8,9-tetrahydro-5H-benzo[7]annulen-2-yl)-1H-pyrazolo[3,4-b]pyridine] were, in that order, under 100 nM and under 100 nM.
For the compound `C[C@@H]1CCCN1C1CCc2ccc(-c3cnc4[nH]nc(-c5ccc(C(C)(C)O)cn5)c4c3)cc2CC1` (stereo partly drawn) [Example 97, 2-[6-(5-{7-[(2R)-2-Methylpyrrolidin-1-yl]-6,7,8,9-tetrahydro-5H-benzo[7]annulen-2-yl}-1H-pyrazolo[3,4-b]pyridin-3-yl)pyridin-3-yl]propan-2-ol], the 50% inhibitory concentration (IC50) in assay [1] was under 100 nM; in assay [2], over 1000 nM.
